Values quoted from earlier work in patent US10736322B2, “Aqueous concentrated herbicidal compositions containing glyphosate salts and dicamba salts” (priority 2012, dated 2020).

Settings: 25° C.

Q: For `O=C(O)CNCP(=O)(O)O` [Glyphosate acid, N-(phosphonomethyl)glycine], which solubility in water is on record?
A: The solubility in water was 1.16 wt. %.
